Test [1] has as its target T1, haematopoietic prostaglandin D synthase (H-PGDS) (Homo sapiens, UniProt O60760).
T1 construct: Full length human H-PGDS cDNA (Invitrogen Ultimate ORF 10H13026) was amplified by PCR; 6-His (N); TEV protease cleavage site (N); made in house; host or cells: E. coli BL21 (DE3*), vector pET22b+
Kind of test: H-PGDS RapidFire high throughput mass spectrometry assay (conversion of PGH2 to PGD2). In kind it is biochemical. The note with it: 10 nM H-PGDS, PGH2 formed in situ by COX-2 from arachidonic acid; read-out: Potency Range (mean pIC50) (converted). The essentials:
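RapidFire SPE–MS read-out calculated percent conversion from relative PGD2 and PGF2α (substrate surrogate) levels. Recombinant full-length human H-PGDS (His-tag, E. coli) turned over PGH2, produced in situ at ˜10 μM by human COX-2 (FLAG-tag, Sf9 cells) acting on arachidonic acid.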

The next test has as its system male C57BI/6N mice. Kind of test: In vivo assay for functional response to muscle injury (eccentric contraction-induced muscle fatigue). More on the design: species or system mouse. The note with it: vs vehicle, FIG. 1. The source says: In Vivo Assays for Functional Response to Muscle Injury
Under anesthesia, the right hind limb of a mouse is restrained at the knee and the foot attached to a motorized footplate/force transducer. Needle electrodes are inserted into the upper limb, either side of the sciatic nerve and a current sufficient to elicit a maximal muscle contraction is applied. Muscle tension is produced by moving the footplate to lengthen the plantarflexor muscles while the limb is under maximal stimulation. This is repeated 60 times to fatigue the muscles of the lower limb. Anesthesia, limb immobilization and limb stimulation are then repeated at regular intervals to measure maximal isometric force in the recovering limb. 7 to 9 animals are tested for each test condition.

In the next test the test system is normal mice. Kind of test: in vivo assay for muscle function following limb muscle injury. The note with it: FIG. 1.

The text below walks through data of patent US11053234B2 (GlaxoSmithKline Intellectual Property Development Limited, priority 2016, dated 2021).

T1 sequence (O60760 whole entry): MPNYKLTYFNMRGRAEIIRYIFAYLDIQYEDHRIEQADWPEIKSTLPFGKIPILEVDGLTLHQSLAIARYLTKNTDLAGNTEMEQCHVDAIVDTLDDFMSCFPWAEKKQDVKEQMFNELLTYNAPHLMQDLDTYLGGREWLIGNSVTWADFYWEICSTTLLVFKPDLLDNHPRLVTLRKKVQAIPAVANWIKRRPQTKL

Consider `CC(C)(O)[C@H]1CC[C@H](NC(=O)N2CC(Oc3cc(F)cc4scnc34)C2)CC1` [Example 141, 3-((6-Fluorobenzo[d]thiazol-4-yl)oxy)-N-((trans)-4-(2-hydroxypropan-2-yl)cyclohexyl)azetidine-1-carboxamide], for which the IC50 in test [1] was 10 to 79.4 nM. Besides, the “kinetics of recovery of maximal isometric force after eccentric contraction injury” value in the test on male C57BI/6N mice (PO 3, 10 and 30 mg/kg BID beginning 10 min prior to eccentric contraction challenge) is listed as “acceleration in the kinetics of recovery”. Besides, the “initial magnitude of the injury, isometric limb force 24-hours following protocol initiation” value with male C57BI/6N mice (PO 3, 10 and 30 mg/kg BID, 24 hours) is given as “reduced the initial magnitude of the injury”. The “functional repair dose response curves of H-PGDS inhibition following limb muscle injury” value in the test on normal mice was “protection and acceleration of functional repair”.

In the case of `CC(C)(O)[C@H]1CC[C@H](NC(=O)[C@H]2C[C@H](Oc3cc(F)ccc3Cl)C2)CC1` [Example 230, (trans)-3-(2-Chloro-5-fluorophenoxy)-N-((trans)-4-(2-hydroxypropan-2-yl)cyclohexyl)cyclobutanecarboxamide], in test [1], the IC50 was 100 to 1000 nM.

In the case of `O=C(N[C@H]1CC[C@H](N2CC(F)(F)C2)CC1)[C@H]1C[C@H](Oc2cc(F)ccc2OC(F)F)C1` [Example 19, (trans)-N-((trans)-4-(3,3-Difluoroazetidin-1-yl)cyclohexyl)-3-(2-(difluoromethoxy)-5-fluorophenoxy)cyclobutanecarboxamide], the IC50 in test [1] was 10 to 79.4 nM.
